Like-named read-outs stand apart in the source and are kept apart here.
Experiments:
Xac306 biofilm formation [1] = test: Static biofilm formation assay in 96-well polystyrene plates with crystal violet staining; type: cell-based, Xanthomonas citri subsp. citri; settings: for dose dependence of Xac306 biofilm decrease: 0 to 20 mM for D-leucine and D-serine, 0 to 150 μg/mL for IAN; for decrease in biofilm mass: 10 mM for D-leucine and 100 μg/mL for IAN (below MIC); for effect on planktonic cell density: sub-MIC: 10 mM D-leucine, 100 μg/mL IAN, data not shown
Description: A static biofilm formation assay in 96-well polystyrene plates coupled with CV staining was performed as previously reported with modifications (Li and Wang, 2011). Briefly, a 96-well polystyrene plate (Nunclon surface, Nuncbrand, Denmark) was prepared with 170 μL NB plus 1.0% glucose per well. Aliquots of 20 μL each of the different concentrations of the tested compound were pipetted into eight wells containing 170 μL of NB plus 1.0% glucose. To each of these wells was added 10 μL of the standardized overnight Xac 306 culture (OD600=1.0). Control wells contained NB plus 1.0% glucose and SDW or 0.1% DMSO as a sterility control, or standardized overnight Xac 306 culture as a growth control. The plate was covered by a MicroWell lid (Nunclon), sealed with parafilm to prevent evaporation and incubated at 28° C. for 48 h without shaking. After incubation, the planktonic growth was measured at OD600. To quantify the amount of biofilms formed on the surfaces of the wells, the culture was removed from the wells. After drying, the wells were washed twice with 200 μl of SDW for 5 min, allowed to dry then 200 μl of 0.1% CV added. After 30 minutes, the CV was removed. The wells were washed with excess SDW to remove unbound CV and air dried in an inverted position for 2 h. Afterward, 200 μl of 95% ethanol was added to the wells and incubated for 30 min at room temperature to elute bound CV. The eluted CV was 2-fold diluted in double distilled water and the absorbance at 590 nm was measured. Each data point was averaged from eight replicate wells.

Xac306 biofilm formation [2] = test: Biofilm formation on polystyrene surface and in glass tubes at sub-MIC; type: cell-based, Xanthomonas citri subsp. citri; settings: Xanthomonas citri, read-out: level of biofilm formation, % of control
Description: A static biofilm formation assay in 96-well polystyrene plates coupled with CV staining was performed as previously reported with modifications (Li and Wang, 2011). Briefly, a 96-well polystyrene plate (Nunclon surface, Nuncbrand, Denmark) was prepared with 170 μL NB plus 1.0% glucose per well. Aliquots of 20 μL each of the different concentrations of the tested compound were pipetted into eight wells containing 170 μL of NB plus 1.0% glucose. To each of these wells was added 10 μL of the standardized overnight Xac 306 culture (OD600=1.0). Control wells contained NB plus 1.0% glucose and SDW or 0.1% DMSO as a sterility control, or standardized overnight Xac 306 culture as a growth control. […] After incubation, the planktonic growth was measured at OD600. To quantify the amount of biofilms formed on the surfaces of the wells, the culture was removed from the wells. […] The eluted CV was 2-fold diluted in double distilled water and the absorbance at 590 nm was measured. […]
To gain further evidence of the effect of selected compounds on biofilm formation, biofilm formation in glass tubes and on leaf surfaces was examined as described previously (Li and Wang, 2012). […] The stain remaining in cells on glass tubes was dissolved in 95% ethanol and quantified by measuring the optical density at 590 nm. […]

[3] = tested on: X. citri subsp. citri strain 306; test: Determination of minimum inhibitory concentrations (MICs) in NB medium, 96-well plate; type: cell-based, Xanthomonas citri subsp. citri; settings: Xanthomonas citri, 48 h
Description: Xac strain 306 was grown in NB at 28° C. with shaking at 200 rpm for 7 h. The cultures were standardized to an OD600 of 0.03 (5×10^7 colony forming unit (CFU)/mL) in NB and then aliquoted into wells of a 96-well plate, 190 μL per well. The initial test concentrations of the compounds were diluted (1:20) in the culture (10 μl of compound in 190 μl of culture) and incubated at 28° C. under stationary conditions. The cultures were monitored at 24 and 48 h at OD600, and the lowest concentration resulting in no growth after 48 h compared to the control samples was defined as the MIC for Xac strain 306. All determinations were conducted in eight replicate wells and repeated three times.

Xac 306 biofilm cells = test: Resistance of Xac biofilm cells to copper, cell viability assay in glass tubes; type: cell-based, Xanthomonas citri subsp. citri; settings: for susceptibility of biofilms to CuSO4 relative to untreated control: 10 mM D-leucine, 100 μg/mL IAN; for cell viability of Xac biofilms exposed to CuSO4: CuSO4 1.0 mM plus biofilm inhibitor; for viable cells in biofilms: CuSO4 (1.0 mM) plus D-leucine 10.0 mM and/or IAN 100 μg/ml, 24 h
Description: The level of copper resistance of biofilms was evaluated using a cell viability assays. Briefly, Xac biofilms were prepared using NB with stationary incubation in glass tubes as described above. After 48 h-incubation, the cultures were removed and bacterial cells attached to the tubes were gently washed three times with SDW. One milliliter of fresh NB with CuSO4 (1.0 mM), D-leucine (10 mM) or IAN (100 μg/mL), or a combination of these compounds was added to each tube. NB alone was used as control. Tubes were kept at room temperature for 24 h and shaken vigorously for 5 min. The suspensions were diluted in 10-fold series, and 10 μL of each dilution spotted in triplicate on NA plate. Plates were incubated at 28° C. for 48 to 72 h prior to assessing bacterial growth. Colonies that grew near the dilution end-point were counted and bacterial populations in the initial suspensions prior to dilution were calculated. Each treatment compromises four replicates and the experiment repeated three times.

[4] = tested on: X. citri subsp. citri on citrus fruit; test: Detached immature grapefruit fruit spray inoculation; type: in vivo, Xanthomonas citri subsp. citri; settings: for decrease in CFU per square centimeter of fruit tissue compared with untreated control / canker symptom development on fruit surface (lesion numbers): D-leucine 10 mM, IAN 100 μg/ml; for canker symptom development on fruit surface (lesion numbers): applied along with pathogen, preliminary study; for log reduction in the number of CFU per square centimeter: fruit, 11 days after inoculation

| SMILES | dose dependence of Xac306 biofilm decrease (Xac306 biofilm formation [1]) | decrease in biofilm mass (Xac306 biofilm formation [1]) [%] | effect on planktonic cell density (Xac306 biofilm formation [1]) | activity at 10000 µM (Xac306 biofilm formation [2]) [%] | MIC [3] [mM] | susceptibility of biofilms to CuSO4 relative to untreated control (Xac 306 biofilm cells) | cell viability of Xac biofilms exposed to CuSO4 (Xac 306 biofilm cells) | viable cells in biofilms (Xac 306 biofilm cells) | decrease in CFU per square centimeter of fruit tissue compared with untreated control [4] | canker symptom development on fruit surface (lesion numbers) [4] | log reduction in the number of CFU per square centimeter [4] [log] | activity at 100 µg/mL (Xac306 biofilm formation [2]; polystyrene surface and glass tubes, 10 mM D-leucine, 100 μg/mL IAN) [%] | MIC ([3]; compound alone, NB medium, 28° C., stationary, OD600, read-out: MIC) [µg/mL] |
| --- | --- | --- | --- | --- | --- | --- | --- | --- | --- | --- | --- | --- | --- |
| CC(C)C[C@@H](N)C(=O)O [D-leucine] | decreased Xac306 biofilm in a dose-dependent manner | 58 | does not significantly decrease planktonic cell density | 50 | 16 | about 10 times | significantly reduced | 1.1×10^6 CFU/mL | approximately 50 fold | able to reduce canker symptom development | ~1.6 | – | – |
| N#CCc1c[nH]c2ccccc12 [IAN, 3-indolylacetonitrile] | decreased Xac306 biofilm in a dose-dependent manner | 65 | does not significantly decrease planktonic cell density | – | – | about 10 times | significantly reduced | 4.3×10^6 CFU/mL | approximately 50 fold | able to reduce canker symptom development | ~1.8 | 60 | 200 |
